Assay results reported in US10131675B2 (Genentech, Inc., priority 2015, dated 2018).

Biological target: DLK (Homo sapiens (Human), UniProt Q12852)
Experiment: DLK TR-FRET Inhibition Assay
Type: biochemical
Settings: N-terminally GST-tagged DLK (catalytic domain amino acid 1-520), MKK4 K131M substrate, 30 μM ATP; read-out: DLK HTRF Ki
How it was run: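 GST-tagged DLK catalytic domain (aa 1-520, 5 nM) phosphorylates 40 nM HIS-tagged MKK4 K131M with 30 μM ATP, pH 7.5, 60 min at ambient temperature; compounds 1:3 serial from 20 uM. Phospho-MKK4 detected by TR-FRET (Eu-cryptate anti-phospho-MKK4/D2 anti-HIS) after 3 h.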

Chain of DLK (Q12852 1-520): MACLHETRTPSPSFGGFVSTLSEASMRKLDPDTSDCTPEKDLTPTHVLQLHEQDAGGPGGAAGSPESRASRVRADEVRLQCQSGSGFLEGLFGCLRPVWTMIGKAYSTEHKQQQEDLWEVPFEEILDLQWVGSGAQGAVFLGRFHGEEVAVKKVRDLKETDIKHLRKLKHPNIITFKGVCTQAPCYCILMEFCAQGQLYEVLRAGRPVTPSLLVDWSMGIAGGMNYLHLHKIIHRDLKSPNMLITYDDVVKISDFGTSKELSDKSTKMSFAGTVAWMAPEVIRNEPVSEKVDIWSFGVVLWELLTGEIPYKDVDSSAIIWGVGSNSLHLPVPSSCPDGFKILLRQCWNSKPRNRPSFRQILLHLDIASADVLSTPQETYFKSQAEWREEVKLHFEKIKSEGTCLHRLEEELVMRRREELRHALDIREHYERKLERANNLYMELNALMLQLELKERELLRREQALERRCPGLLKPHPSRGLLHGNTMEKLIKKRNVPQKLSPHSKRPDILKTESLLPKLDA

| SMILES | Ki |
| --- | --- |
| CC1(C)OCCn2c1nc1c(N3CC(F)C3)nc(-c3cnc(N)nc3)nc12 [Example 2, 5-[1-(3-Fluoro-azetidin-1-yl)-8,8-dimethyl-5,6-dihydro-8H-7-oxa-2,4,4b,9-tetraaza-fluoren-3-yl]-pyrimidin-2-ylamine] | 391 nM |
| CC1(C)OCCn2c1nc1c(OC3CC4CC4C3)nc(-c3cnc(N)nc3)nc12 (stereo not shown) [Example 89] | 551 nM |
| CC1(C)OCCn2c1nc1c(N3CC4CCC3C4)nc(-c3cnc4ccnn4c3)nc12 (stereo not shown) [Example 37, 1-(2-Aza-bicyclo[2.2.1]hept-2-yl)-8,8-dimethyl-3-pyrazolo[1,5-a]pyrimidin-6-yl-5,6-dihydro-8H-7-oxa-2,4,4b,9-tetraaza-fluorene] | 663 nM |
| CC1(C)OCCn2c1nc1c(N3CC(C#N)C3)nc(-c3cnc4[nH]cnc4c3)nc12 [Example 112, 1-(2-(3H-imidazo[4,5-b]pyridin-6-yl)-6,6-dimethyl-8,9-dihydro-6H-[1,4]oxazino[4,3-e]purin-4-yl)azetidine-3-carbonitrile] | 458 nM |
| COc1cc(-c2nc(N3CC(F)(F)C3)c3nc4n(c3n2)CCOC4(C)C)cnc1N [Example 65, 5-(4-(3,3-difluoroazetidin-1-yl)-6,6-dimethyl-8,9-dihydro-6H-[1,4]oxazino[4,3-e]purin-2-yl)-3-methoxypyridin-2-amine] | 860 nM |
| COC1CN(c2nc(-c3cnc(N)c(OC(F)F)c3)nc3c2nc2n3CCCOC2)C1 [Example 136, 3-(difluoromethoxy)-5-(4-(3-methoxyazetidin-1-yl)-6,8,9,10-tetrahydro-[1,4]oxazepino[4,3-e]purin-2-yl)pyridin-2-amine] | 687 nM |
| CC1(C)OCCn2c1nc1c(N3C4CCC3CC4)nc(-c3cnc(N)nc3)nc12 [Example 56, 5-(4-(7-azabicyclo[2.2.1]heptan-7-yl)-6,6-dimethyl-8,9-dihydro-6H-[1,4]oxazino[4,3-e]purin-2-yl)pyrimidin-2-amine] | 339 nM |
| CC1(C)OCCn2c1nc1c(N3C[C@@H]4CC(F)(F)C[C@@H]4C3)nc(-c3cnc(N)nc3)nc12 [Example 6] | 727 nM |
| CC(Oc1nc(-c2cnc(N)nc2)nc2c1nc1n2CCOC1(C)C)C1CC1 (stereo not shown) [Example 155] | 1200 nM |
| CC1(C)OCCn2c1nc1c(N3CC4(CCC4)C3)nc(-c3cnc(N)nc3)nc12 [Example 52, 5-[1-(2-Aza-spiro[3.3]hept-2-yl)-8,8-dimethyl-5,6-dihydro-8H-7-oxa-2,4,4b,9-tetraaza-fluoren-3-yl]-pyrimidin-2-ylamine] | 515 nM |
| Cc1cc(-c2nc(N3CC4CC3C4)c3nc4n(c3n2)CCOC4(C)C)cnc1N [Example 48, 5-(4-(2-azabicyclo[2.1.1]hexan-2-yl)-6,6-dimethyl-8,9-dihydro-6H-[1,4]oxazino[4,3-e]purin-2-yl)-3-methylpyridin-2-amine] | 992 nM |
| CC1(C)OCCn2c1nc1c(OCC3CC3)nc(-c3cnc(N)nc3)nc12 [Example 86] | 634 nM |
| Nc1ncc(-c2nc(N3CC4CC3C4)c3nc4n(c3n2)CCO[C@@H]4C(F)(F)F)cn1 (single isomer, unassigned) [Example 99] | 866 nM |

Continued by falling Ki, values first:

| Ki | SMILES |
| --- | --- |
| 357 nM | CC1(C)OCCn2c1nc1c(OC3CCCC3)nc(-c3cnc(N)nc3)nc12 [Example 84, 5-(4-(cyclopentyloxy)-6,6-dimethyl-8,9-dihydro-6H-[1,4]oxazino[4,3-e]purin-2-yl)pyrimidin-2-amine] |
| 328 nM | CC1(C)OCCn2c1nc1c(N3CC4CC4C3)nc(-c3cnc(N)nc3)nc12 (stereo not shown) [Example 5, 5-[1-(3-Aza-bicyclo[3.1.0]hex-3-yl)-8,8-dimethyl-5,6-dihydro-8H-7-oxa-2,4,4b,9-tetraaza-fluoren-3-yl]-pyrimidin-2-ylamine] |
| 299 nM | CC1CCN(c2nc(-c3cnc(N)nc3)nc3c2nc2n3CCOC2(C)C)C1 (stereo not shown) [Example 27, 5-[8,8-Dimethyl-1-(3-methyl-pyrrolidin-1-yl)-5,6-dihydro-8H-7-oxa-2,4,4b,9-tetraaza-fluoren-3-yl]-pyrimidin-2-ylamine] |
| 235 nM | CC1(C)OCCn2c1nc1c(N3CC4CC3C4)nc(-c3cnc(N)c(Cl)c3)nc12 [Example 35, 5-[1-(2-Aza-bicyclo[2.1.1]hex-2-yl)-8,8-dimethyl-5,6-dihydro-8H-7-oxa-2,4,4b,9-tetraaza-fluoren-3-yl]-3-chloro-pyridin-2-ylamine] |
| 226 nM | Nc1ncc(-c2nc(C3CC3)c3nc4n(c3n2)CCOC42CCC2)cn1 [Example 115, 5-(4-cyclopropyl-8,9-dihydrospiro[[1,4]oxazino[4,3-e]purine-6,1′-cyclobutan]-2-yl)pyrimidin-2-amine] |
| 223 nM | CC1(C)OCCn2c1nc1c(N3CC4CC3C[C@@H]4F)nc(-c3cnc(N)nc3)nc12 (single isomer, unassigned) [Example 143] |
| 149 nM | C[C@H]1Cn2c(nc3c(N4CC5CC4C5)nc(-c4cnc(N)nc4)nc32)C(C)(C)O1 (single isomer, unassigned) [Example 139] |
| 120 nM | C[C@H]1Cn2c(nc3c(N4CC5CC4C5)nc(-c4cnc(N)nc4)nc32)[C@@H](C)O1 [Example 151] |
| 93.8 nM | Nc1ncc(-c2nc(N3CC4CC3C4)c3nc4n(c3n2)CCO[C@H]4C(F)(F)F)cn1 (single isomer, unassigned) [Example 98] |
| 86.7 nM | CCN(c1nc(-c2cnc(N)nc2)nc2c1nc1n2CCOC1(C)C)C1CCC1 [Example 62, 2-(2-aminopyrimidin-5-yl)-N-cyclobutyl-N-ethyl-6,6-dimethyl-8,9-dihydro-6H-[1,4]oxazino[4,3-e]purin-4-amine] |
| 73.7 nM | COC1CN(c2nc(-c3cnc(N)c(OC(F)F)c3)nc3c2nc2n3CCOC2(C)C)C1 [Example 149] |
| 39.5 nM | CC1(C)OCCn2c1nc1c(N3CC4CCC3C4)nc(-c3cnc4[nH]cnc4c3)nc12 (stereo not shown) [Example 147] |
| 34.3 nM | CC1(C)OCCn2c1nc1c(C3CC3)nc(-c3cnc(N)c(OC(F)F)c3)nc12 [Example 119, 5-(4-cyclopropyl-6,6-dimethyl-8,9-dihydro-6H-[1,4]oxazino[4,3-e]purin-2-yl)-3-(difluoromethoxy)pyridin-2-amine] |
| 32.7 nM | CC(C)c1c[nH]c2ncc(-c3nc(N4CC(F)(F)C4)c4nc5n(c4n3)CCOC5(C)C)cc12 [Example 67] |
| 31.8 nM | Cc1c[nH]c2ncc(-c3nc(N4CC5CCC4C5)c4nc5n(c4n3)CCOC5(C)C)cc12 (stereo not shown) [Example 34, 1-(2-Aza-bicyclo[2.2.1]hept-2-yl)-8,8-dimethyl-3-(3-methyl-1H-pyrrolo[2,3-b]pyridin-5-yl)-5,6-dihydro-8H-7-oxa-2,4,4b,9-tetraaza-fluorene] |
| 6.79 nM | CC1(C)OCCn2c1nc1c(N3CC(O)C3)nc(-c3cnc4[nH]cc(C(F)(F)F)c4c3)nc12 [Example 39, 1-[8,8-Dimethyl-3-(3-trifluoromethyl-1H-pyrrolo[2,3-b]pyridin-5-yl)-5,6-dihydro-8H-7-oxa-2,4,4b,9-tetraaza-fluoren-1-yl]-azetidin-3-ol] |
| 4.97 nM | CC1(C)OCCn2c1nc1c(N3CCC4(COC4)C3)nc(-c3cnc4[nH]cc(C#N)c4c3)nc12 [Example 42, 5-[8,8-Dimethyl-1-(2-oxa-6-aza-spiro[3.4]oct-6-yl)-5,6-dihydro-8H-7-oxa-2,4,4b,9-tetraaza-fluoren-3-yl]-1H-pyrrolo[2,3-b]pyridin-3-carbonitrile] |
| 1.25 nM | CC1(C)OCCn2c1nc1c(N3CC(C#N)C3)nc(-c3cnc4[nH]cc(Cl)c4c3)nc12 [Example 110, 1-(2-(3-chloro-1H-pyrrolo[2,3-b]pyridin-5-yl)-6,6-dimethyl-8,9-dihydro-6H-[1,4]oxazino[4,3-e]purin-4-yl)azetidine-3-carbonitrile] |
